This is an account of results in patent US20240300975A1, “DIMETHYL-SUBSTITUTED THIAZOLOLACTAM COMPOUND AND USE THEREOF” (D3 Bio (Wuxi) Co., Ltd., priority 2021, published 2024).

Where only a bound is given, the exact number is not on record here.

One data set in a line: In vivo PK study in mice. The following applies: female BALB/c mice. An excerpt: Female BALB/c mice were used as assay animals to determine the blood concentration of the compound and evaluate the pharmacokinetic behavior after a single administration.
Four healthy adult female BALB/c mice were selected, wherein 2 mice were in an intravenous injection group and 2 mice were in an oral group. The vehicle in the intravenous injection group was 5% DMSO+95% (20% HP-β-CD). The compound to be assayed was mixed with an appropriate amount of vehicle for intravenous injection, vortexed and sonicated to prepare a clear solution of 0.5 mg/mL. The clear solution was filtered by a microporous membrane, and then ready for use. The vehicle in the oral group was 5% DMSO+95% (20% HP-β-CD). The compound to be assayed was mixed with the vehicle, vortexed and sonicated to prepare a solution of 0.3 mg/mL. Mice were administered 1 mg/kg intravenously or 3 mg/kg orally, and then whole blood was collected for a certain period. Plasma was prepared. The drug concentration was analyzed by LC-MS/MS method, and the pharmacokinetic parameters were calculated by Phoenix WinNonlin software (Pharsight, USA).

The target of the next data set is hERG potassium channel (Homo sapiens (Human), UniProt Q12809). Kind of data set: hERG assay (automated patch-clamp, CHO-hERG cells). The following applies: Qpatch, highest assayed concentration 40 μM. The data set is classed as cell-based. The protocol:
A fully automated patch-clamp method was used to assay the effect of the compound on hERG potassium channel (human Ether-a-go-go Related Gene potassium channel) current.
CHO-hERG cells were cultured in a 175 cm^2 culture flask. When cells grew to a density of 60˜80%, the culture medium was removed. Cells were washed once with 7 mL of PBS (Phosphate Buffered Saline), and then 3 mL of Detachin was added for digestion. After the digestion was completed, 7 mL of culture medium was added for neutralization, and then the mixture was centrifuged. The supernatant was aspirated, and then 5 mL of culture medium was added to resuspend the cells and ensure that the cell density was 2˜5×10^6/mL.
Extracellular solution formulation (mM): 140 NaCl, 5 KCl, 1 CaCl2), 1.25 MgCl2, 10 HEPES and 10 Glucose; the formulation was adjusted to pH of 7.4 with NaOH. […]
The single-cell high-impedance sealing and whole-cell pattern formation processes were all automatically performed by a Qpatch instrument. […] This voltage stimulation was applied every 15 seconds, and recorded for 2 minutes. The extracellular solution was then given, and recorded for 5 minutes. […]
Assay data were analyzed by GraphPad Prism 5.0 software. […]
• The inhibitory effect of Cisapride with multiple concentrations on the hERG channel was measured as a positive control.
For orientation: The hERG channel carries a current that helps repolarise heart muscle cells.

The next data set concerns rat plasma albumin. The experiment in a line: Plasma protein binding (PPB), rat plasma. The data set is classed as in vitro ADME. Conditions: ultracentrifugation, 37° C., 4 h. The protocol:
(§1) The binding degree of the assay compound to human/mouse/rat/canine/monkey plasma albumin was studied.
(§2) • 1) Matrix preparation: on the day of the assay, plasma was thawed in cold water and centrifuged at 3220 rpm for 5 min to remove all clots. The pH of the resulting plasma was measured and adjusted to 7.4±0.1 using 1% phosphoric acid or 1N sodium hydroxide as needed. • 2) Dilution procedure for the assay compound: the assay compound was dissolved in dimethyl sulfoxide (DMSO) to prepare stock solutions with concentrations of 10 mM and 2 mM, respectively. A 40 μM working solution was prepared by diluting 2 μL of stock solution (2 mM) with 98 μL of DMSO. A 400 μM working solution of the control compound was prepared by diluting 10 μL of stock solution with 240 μL of DMSO. The working solution of the compound (5 μL) was mixed well with a blank matrix (995 μL) at a ratio of 1:200 to prepare a loading matrix.
(§3) • a) An equal volume of 30 μL of loading matrix (n=2) was transferred to a sample collection plate to prepare a time 0 (TO) sample for residue determination. The sample was immediately matched with the corresponding blank buffer to a final volume of 60 μL, and the volume ratio of plasma to buffer in each well was 1:1. […] The mixture was centrifuged at 4000 rpm for 20 min and 100 μL of supernatant from each sample was analyzed by LC-MS/MS.

Another data set relates to canine plasma albumin. The experiment in a line: Plasma protein binding (PPB), canine plasma. The following applies: ultracentrifugation, 37° C., 4 h. It counts as in vitro ADME. On the procedure:
as §1, §2, §3

Chain of hERG potassium channel (Q12809 whole entry): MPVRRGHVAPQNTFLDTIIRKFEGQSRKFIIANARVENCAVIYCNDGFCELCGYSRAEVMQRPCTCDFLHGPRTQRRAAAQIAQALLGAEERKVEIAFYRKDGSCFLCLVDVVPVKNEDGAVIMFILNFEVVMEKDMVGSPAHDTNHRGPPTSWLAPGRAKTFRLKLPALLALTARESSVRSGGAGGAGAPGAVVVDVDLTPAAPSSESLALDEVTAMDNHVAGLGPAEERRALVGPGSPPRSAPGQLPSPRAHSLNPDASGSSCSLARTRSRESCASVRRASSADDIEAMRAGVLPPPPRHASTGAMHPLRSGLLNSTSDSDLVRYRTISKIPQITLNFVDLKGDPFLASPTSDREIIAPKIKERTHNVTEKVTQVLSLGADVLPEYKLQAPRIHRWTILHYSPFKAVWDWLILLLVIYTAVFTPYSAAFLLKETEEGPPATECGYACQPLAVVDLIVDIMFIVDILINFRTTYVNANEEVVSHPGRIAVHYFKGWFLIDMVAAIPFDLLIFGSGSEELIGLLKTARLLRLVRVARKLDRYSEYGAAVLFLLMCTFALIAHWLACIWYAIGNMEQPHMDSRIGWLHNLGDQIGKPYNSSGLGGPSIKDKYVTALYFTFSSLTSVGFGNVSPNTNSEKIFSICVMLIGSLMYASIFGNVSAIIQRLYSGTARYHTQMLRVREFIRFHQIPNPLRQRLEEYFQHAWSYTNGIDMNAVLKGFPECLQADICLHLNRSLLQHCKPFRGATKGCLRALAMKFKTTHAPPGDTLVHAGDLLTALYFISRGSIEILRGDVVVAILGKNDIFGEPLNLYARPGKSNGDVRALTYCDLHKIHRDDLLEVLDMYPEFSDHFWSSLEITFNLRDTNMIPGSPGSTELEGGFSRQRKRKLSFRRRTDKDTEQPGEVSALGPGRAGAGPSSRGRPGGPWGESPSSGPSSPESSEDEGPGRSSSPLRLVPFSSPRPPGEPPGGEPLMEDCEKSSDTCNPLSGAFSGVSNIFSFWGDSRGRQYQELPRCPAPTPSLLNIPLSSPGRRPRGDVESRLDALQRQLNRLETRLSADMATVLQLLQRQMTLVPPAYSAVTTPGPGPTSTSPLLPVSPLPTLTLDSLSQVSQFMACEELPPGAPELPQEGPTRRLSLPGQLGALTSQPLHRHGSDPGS

`Cc1cccc(CN2C(=O)c3nc(-c4nc(Nc5ccnn5C)ncc4C)sc3C2(C)C)n1` [WX001]: in the data set “In vivo PK study in mice” (3 mg/kg orally), the “Oral DNAUC (AUCPO/Dose)” value is 787.18 nM · h/mpk. For the same molecule, the clearance – broadly, the rate of elimination divided by the concentration – in the data set “In vivo PK study in mice” (mouse, plasma, iv, 1 mg/kg intravenously) came out at 27.5 mL/min/kg. Also, the Vd in the data set “In vivo PK study in mice” (mouse, plasma, iv, 1 mg/kg intravenously, read-out: Vdss) stood at 1.6 L/kg. The bioavailability (commonly dose-corrected exposure relative to a reference, in per cent) in the data set “In vivo PK study in mice” (mouse, plasma, oral, 1 mg/kg intravenously / 3 mg/kg orally, read-out: F % (oral bioavailability)) was 62%. The half-life (in general, how long it takes for the measured level to halve) in “In vivo PK study in mice” (mouse, plasma, single administration) was 1.29 h. Besides, the concentration in “In vivo PK study in mice” (mouse, po, 3 mg/kg orally, plasma) peaked (Cmax) at 2120 nM. For the same molecule, the half-inhibitory concentration (IC50) (commonly the point on the concentration scale where inhibition reaches its midpoint) against hERG potassium channel was more than 40 µM. The “Plasma protein binding rate (unbound %)” value with rat plasma albumin was found to be 3.8%; in the data set on canine plasma albumin it was 4.1%.
